ChEMBL document CHEMBL3232809, “Synthesis, antibiotic activity and structure-activity relationship study of some 3-enaminetetramic acids” (2014)
In brackets after ≈: the same amount, converted by molar mass.

Assays:
Assay type in all cases: functional
Escherichia coli [1] = test: Antimicrobial activity against Escherichia coli ATCC 25922
Haemophilus influenzae [2] = test: Antimicrobial activity against Haemophilus influenzae ATCC 31517 MMSA
Enterococcus faecalis = test: Antimicrobial activity against vancomycin-susceptible Enterococcus faecalis ATCC 29212
Streptococcus pneumoniae [3] = test: Antimicrobial activity against erythromycin-susceptible Streptococcus pneumoniae ATCC 49619
Staphylococcus aureus [4] = test: Antimicrobial activity against methicillin-resistant Staphylococcus aureus
Streptococcus pneumoniae [5] = test: Antimicrobial activity against penicillin- and erythromycin-resistant Streptococcus pneumoniae
Streptococcus pneumoniae [6] = test: Antimicrobial activity against penicillin- and erythromycin-resistant Streptococcus pneumoniae in presence of 2.5% horse blood
Staphylococcus aureus [7] = test: Antimicrobial activity against methicillin-sensitive Staphylococcus aureus ATCC 13709
Haemophilus influenzae [8] = test: Antimicrobial activity against LS2 Efflux knock-out Haemophilus influenzae
Staphylococcus aureus [9] = test: Antimicrobial activity against vancomycin-susceptible Staphylococcus aureus ATCC 25923
Pseudomonas aeruginosa = test: Antimicrobial activity against Pseudomonas aeruginosa ATCC 27853
Enterococcus faecium = test: Antimicrobial activity against vancomycin-resistant Enterococcus faecium
Escherichia coli [10] = test: Antimicrobial activity against Escherichia coli 50
Staphylococcus aureus [11] = test: Antimicrobial activity against Staphylococcus aureus Oxford
Escherichia coli [12] = test: Antimicrobial activity against Escherichia coli 49

SMILES | MIC (Escherichia coli [1]) [µg/mL] | MIC (Haemophilus influenzae [2]) [µg/mL] | MIC (Enterococcus faecalis) [µg/mL] | MIC (Streptococcus pneumoniae [3]) [µg/mL] | MIC (Staphylococcus aureus [4]) [µg/mL] | MIC (Streptococcus pneumoniae [5]) [µg/mL] | MIC (Streptococcus pneumoniae [6]) [µg/mL] | MIC (Staphylococcus aureus [7]) [µg/mL] | MIC (Haemophilus influenzae [8]) [µg/mL] | MIC (Staphylococcus aureus [9]) [µg/mL] | MIC (Pseudomonas aeruginosa) [µg/mL] | MIC (Enterococcus faecium) [µg/mL] | MIC (Escherichia coli [10]) [µg/mL] | MIC (Staphylococcus aureus [11]) [µg/mL] | MIC (Escherichia coli [12]) [µg/mL]
CCCCCCCCCCCCC/C(Nc1ccccc1)=C1\C(=O)CNC1=O | > 32 | > 32 | > 32 | > 32 | > 32 | > 32 | > 32 | > 32 | > 32 | > 32 | > 32 | > 32 | > 32 | > 32 | > 32
COC(=O)[C@]12CO[C@H](C(C)(C)C)N1C(=O)/C(=C(/CCCOc1ccccc1)NCCCOC(C)C)C2=O | > 32 | > 32 | > 32 | > 32 | > 32 | > 32 | > 32 | > 32 | > 32 | > 32 | > 32 | > 32 | > 32 | > 32 | > 32
CCOC(=O)[C@]12CO[C@H](C(C)(C)C)N1C(=O)/C(=C(/CC13CC4CC(CC(C4)C1)C3)NC(C)CCCN(CC)CC)C2=O (stereo not given in full) | > 32 | > 64 | 32 (≈ 54.6 µM) | 32 (≈ 54.6 µM) | 64 (≈ 109 µM) | 16 (≈ 27.3 µM) | 32 | 32 (≈ 54.6 µM) | 16 (≈ 27.3 µM) | 64 (≈ 109 µM) | > 32 | 32 (≈ 54.6 µM) | > 32 | 32 (≈ 54.6 µM) | > 32
CSCCC1C(=O)/C(=C(\CC23CC4CC(CC(C4)C2)C3)NCC(C)(C)CN(C)C)C(=O)N1C(C)=O (stereo not given) | > 32 | > 32 | > 32 | > 32 | > 32 | > 32 | > 32 | > 32 | > 32 | > 32 | > 32 | > 32 | > 32 | > 32 | > 32
CCCCCCCCCCC/C(Nc1ccc(N)cc1)=C1\C(=O)CN(CCCCCC)C1=O | > 32 | > 32 | > 32 | > 32 | > 32 | > 32 | > 32 | > 32 | > 32 | > 32 | > 32 | > 32 | > 32 | > 32 | > 32
CCCC(=O)N1CC(=O)/C(=C(\CC23CC4CC(CC(C4)C2)C3)NCCCN2CCCCC2C)C1=O (stereo not given) | > 32 | > 64 | 64 (≈ 132 µM) | 32 (≈ 66.2 µM) | 64 (≈ 132 µM) | 32 (≈ 66.2 µM) | 32 | 64 (≈ 132 µM) | 32 (≈ 66.2 µM) | 64 (≈ 132 µM) | > 32 | 64 (≈ 132 µM) | > 32 | 64 (≈ 132 µM) | > 32
C/C(Nc1ccccc1)=C1\C(=O)N2[C@H](C(C)(C)C)OC[C@@]2(C)C1=O (racemic) | > 32 | > 64 | 64 (≈ 195 µM) | 8 (≈ 24.4 µM) | 64 (≈ 195 µM) | 8 (≈ 24.4 µM) | 8 | 64 (≈ 195 µM) | 8 (≈ 24.4 µM) | 64 (≈ 195 µM) | > 32 | 32 (≈ 97.4 µM) | > 32 | 64 (≈ 195 µM) | > 32
O=C1CNC(=O)/C1=C(\NCc1ccccc1)c1cccc2ccccc12 | > 32 | > 32 | > 32 | > 32 | > 32 | > 32 | > 32 | > 32 | > 32 | > 32 | > 32 | > 32 | > 32 | > 32 | > 32
COC(=O)[C@@]12CO[C@@H](C(C)(C)C)N1C(=O)/C(=C(\C)NCC1CCC3CC1C3(C)C)C2=O (stereo not given in full) | > 32 | > 32 | > 32 | > 32 | > 32 | > 32 | > 32 | > 32 | > 32 | > 32 | > 32 | > 32 | > 32 | > 32 | > 32
COC(=O)[C@]12CO[C@H](C(C)(C)C)N1C(=O)/C(=C(/CCCOc1ccccc1)NCCN1CCCCC1)C2=O | > 32 | > 32 | > 32 | > 32 | > 32 | > 32 | > 32 | > 32 | > 32 | > 32 | > 32 | > 32 | > 32 | > 32 | > 32
CCCCCCC/C=C/C(=O)N1C(=O)/C(=C(\C)Nc2ccc(N3CCOCC3)cc2)C(=O)C1CC(C)C (stereo not given) | > 32 | > 32 | > 32 | > 32 | > 32 | > 32 | > 32 | > 32 | > 32 | > 32 | > 32 | > 32 | > 32 | > 32 | > 32
CCCCCCCCC/C(NC(C)CCCN(CC)CC)=C1/C(=O)N2[C@@H](C(C)(C)C)OC[C@]2(C(=O)OC)C1=O (stereo not given in full) | > 32 | > 64 | 16 (≈ 29.1 µM) | 4 (≈ 7.28 µM) | 16 (≈ 29.1 µM) | 4 (≈ 7.28 µM) | 16 | 16 (≈ 29.1 µM) | > 64 | 16 (≈ 29.1 µM) | > 32 | 8 (≈ 14.6 µM) | > 32 | 16 (≈ 29.1 µM) | > 32
CCOC(=O)[C@]12CO[C@H](C(C)(C)C)N1C(=O)/C(=C(/CC13CC4CC(CC(C4)C1)C3)NCC(C)(C)CN(C)C)C2=O | > 32 | > 32 | > 32 | > 32 | > 32 | > 32 | > 32 | > 32 | > 32 | > 32 | > 32 | > 32 | > 32 | > 32 | > 32
CC(C)(C)[C@H]1OC[C@@H]2C(=O)/C(=C(/NCCCCN)c3ccccc3)C(=O)N21 | > 32 | > 32 | > 32 | > 32 | > 32 | > 32 | > 32 | > 32 | > 32 | > 32 | > 32 | > 32 | > 32 | > 32 | > 32
C/C(NCCOc1ccccc1Cl)=C1/C(=O)[C@@H]2CCCC(=O)N2C1=O | > 32 | > 32 | > 32 | > 32 | > 32 | > 32 | > 32 | > 32 | > 32 | > 32 | > 32 | > 32 | > 32 | > 32 | > 32
